PMC11839852, “Preclinical comparison of (radio)lanthanides using mass spectrometry and nuclear imaging techniques: biodistribution of lanthanide-based tumor-targeting agents and lanthanides in ionic form” (European Journal of Nuclear Medicine and Molecular Imaging, 2024)

Tested on: non-tumor-bearing immunocompetent FVB mice
Assay: Dual-isotope SPECT/CT imaging of [177Lu]LuCl3 and [161Tb]TbCl3
Format: in vivo
Conditions: radiolanthanides in chloride form
Procedure: Dual-isotope SPECT studies with mice were performed as previously reported. Tumor-bearing nude mice (n = 2‒3 for each type of radioconjugate) were injected with 20 MBq (1 nmol) of a mixture of ^177Lu- and ^161Tb-labeled tumor-targeting agents (each 10 MBq, 0.5 nmol) diluted in saline containing 0.05% BSA. Non-tumor-bearing immunocompetent FVB mice (n = 2) were injected with 20 MBq of a mixture of [^177Lu]LuCl3 (10 MBq, 13.8 pmol) and [^161Tb]TbCl3 (10 MBq, 14.3 pmol) diluted with saline containing 0.05% BSA with a final pH value of 4.5. Additional mice (n = 2) were injected with colloids of lutetium-177 and terbium-161 obtained by diluting the chloride salts with PBS of pH 7.4 (Supplementary Material). SPECT/CT images were acquired 1 h, 4 h and 24 h after injection of the activity solutions using a dedicated small-animal SPECT/CT scanner (NanoSPECT/CT, Mediso Medical Imaging Systems, Budapest, Hungary) and the Nucline software (version 1.02, Mediso Ltd., Budapest, Hungary). Counts stemming from the γ-lines of lutetium-177 (112.9 keV ± 10% and 208.4 ± 10%) and the γ-lines and x-rays of terbium-161 (47.7 keV ± 10% and 74.6 keV ± 10%) were simultaneously registered using the respective energy windows for each radionuclide. […]

With `[Cl][Lu]([Cl])[Cl]` [[^177Lu]LuCl3] the “Bone uptake on SPECT images” value was “higher bone uptake”.
